# What was measured:
# [1] = system: SW1990; assay: Cytotoxic activity against human SW1990 cells; format: functional, cell-based
# [2] = system: NCI-H460; assay: Cytotoxic activity against human NCI-H460 cells; format: functional, cell-based
# [3] = Cytotoxic activity against human SGC7901 cells; format: functional, cell-based, SGC-7901
# [4] = system: MCF7; assay: Cytotoxic activity against human MCF7 cells; format: functional, cell-based
# [5] = system: HeLa; assay: Cytotoxic activity against human HeLa cells; format: functional, cell-based
# [6] = system: Huh-7; assay: Cytotoxic activity against human HuH7 cells; format: functional, cell-based
# [7] = system: DU-145; assay: Cytotoxic activity against human DU145 cells; format: functional, cell-based
# [8] = Homo sapiens, SW1990, read-out: IC50
# [9] = Homo sapiens, NCI-H460, read-out: IC50
# [10] = Homo sapiens, SGC-7901, read-out: IC50
# [11] = Homo sapiens, MCF7, read-out: IC50
# [12] = Homo sapiens, HeLa, read-out: IC50
# [13] = Homo sapiens, Huh-7, read-out: IC50
# [14] = Homo sapiens, DU-145, read-out: IC50
smiles,measurement,setting,value
CC(=O)OCCOC(=O)[C@@H](CS[C@H]1CCC[C@H](C)OC(=O)Cc2cc(O)cc(O)c2C(=O)C1)OC(C)=O,IC50,[1]; [8],11 µM
same,IC50,[2]; [9],4.6 µM
same,IC50,[3]; [10],6.8 µM
same,IC50,[4]; [11],4.7 µM
same,IC50,[5]; [12],8 µM
same,IC50,[6]; [13],5.5 µM
same,IC50,[7]; [14],7 µM
Nc1ccn([C@@H]2O[C@H](CO)[C@@H](O)C2(F)F)c(=O)n1 [GEMCITABINE],IC50,[1]; [8],1.6 µM
C[C@H]1CCC[C@H](SC[C@@H](O)C(=O)O)CC(=O)c2c(O)cc(O)cc2CC(=O)O1,IC50,[1]; [8],11 µM
same,IC50,[2]; [9],7 µM
same,IC50,[3]; [10],8.5 µM
same,IC50,[4]; [11],4.4 µM
same,IC50,[5]; [12],6 µM
same,IC50,[6]; [13],5.1 µM
same,IC50,[7]; [14],6 µM
CC(=O)O[C@H]1C(=O)[C@@]2(C)[C@H]([C@H](OC(=O)c3ccccc3)[C@]3(O)C[C@H](OC(=O)[C@H](O)[C@@H](NC(=O)c4ccccc4)c4ccccc4)C(C)=C1C3(C)C)[C@]1(OC(C)=O)CO[C@@H]1C[C@@H]2O [PACLITAXEL],IC50,[5]; [12],12 µM
CC1CCCCCC(=O)c2c(O)cc(O)cc2CC(=O)O1 (centres undefined) [CURVULARIN],IC50,[1]; sw1990,Not Active
same,IC50,[2]; nci-h460,Not Active
same,IC50,[3]; sgc-7901,Not Active
same,IC50,[4]; mcf7,Not Active
same,IC50,[5]; hela,Not Active
same,IC50,[6]; huh-7,Not Active
same,IC50,[7]; du-145,Not Active
COc1cccc2c1C(=O)c1c(O)c3c(c(O)c1C2=O)C[C@@](O)(C(=O)CO)C[C@@H]3O[C@H]1C[C@H](N)[C@H](O)[C@H](C)O1 [DOXORUBICIN],IC50,[3]; [10],0.011 µM
C[C@H]1CCC/C=C/C(=O)c2c(O)cc(O)cc2CC(=O)O1 [DEHYDROCURVULARIN],IC50,[1]; [8],10 µM
same,IC50,[2]; [9],5 µM
same,IC50,[3]; [10],6 µM
same,IC50,[4]; [11],4 µM
same,IC50,[5]; [12],6 µM
same,IC50,[6]; [13],5 µM
same,IC50,[7]; [14],6 µM
COC(=O)[C@H](O)CS[C@H]1CCC[C@H](C)OC(=O)Cc2cc(O)cc(O)c2C(=O)C1,IC50,[1]; [8],10 µM
same,IC50,[2]; [9],3.8 µM
same,IC50,[3]; [10],5.5 µM
same,IC50,[4]; [11],4.4 µM
same,IC50,[5]; [12],6 µM
same,IC50,[6]; [13],3.9 µM
same,IC50,[7]; [14],6 µM
O=c1[nH]cc(F)c(=O)[nH]1 [FLUOROURACIL],IC50,[7]; [14],3.4 µM

# From ChEMBL document CHEMBL3085646, “Sulfur-containing cytotoxic curvularin macrolides from Penicillium sumatrense MA-92, a fungus obtained from the rhizosphere of the mangrove Lumnitzera racemosa” (J Nat Prod, 2013)
